Numbers after ± are expanded uncertainties.

On to `CCCCCCCCCCOc1cc(C=NNC(=O)c2ccc(N=Cc3cc(OCCCCCCCCCC)c(OCCCCCCCCCC)c(OCCCCCCCCCC)c3)cc2)cc(OCCCCCCCCCC)c1OCCCCCCCCCC`, for which the Triple point temperature (Liquid crystal of unknown type) came out at 385.85 ± 2 K.
As to `CCCCCOc1ccc(-c2ccc(C#N)cc2)cc1` [4'-pentoxy-4-cyanobiphenyl], the Triple point temperature (Nematic liquid crystal) was 339.75 ± 2 K.

(Values after the NIST ThermoML archive (doi:10.1016/j.tca.2015.08.007).)
